Assay results published in patent US12102638B2 (Urovant Sciences GmbH, priority 2017, dated 2024).
Where “and” joins values, the source holds several entries; their conditions need not be identical. Equal entries are not always repeated. Where two headings read alike, the source gives them in different places.

Experiments:
patients with OAB = test: Phase 2b vital sign changes (HR, SBP, DBP); assay type: in vivo, human
Excerpt: None led to discontinuation. The overall incidence of orthostatic symptoms was low.
Small differences in the percent of subjects exceeding categorical heart rate and blood pressure thresholds for vibegron were similar to those in the tolterodine arm.

[1] = single rising oral dose Phase 1 pharmacokinetics in healthy subjects; assay type: in vivo, human; conditions: for AUC(0-t): read-out: AUC0-24
Method: All subjects were healthy adults. […] Systemic exposures were greater than dose proportional up to 600 mg.

men and women with OAB = test: Phase 2b study in OAB, efficacy (voiding diary); assay type: in vivo, human
Excerpt: Part 2 was designed to continue to assess the safety and efficacy of concomitant dosing. […] Subjects in both Part 1 and Part 2 had the option of enrolling in a 1-year extension. Participants were required to keep a voiding diary, recording the occurrence of each strong urge, total incontinence, and urge incontinence episode. Efficacy data for Part 1 and Part 2 are summarized herein.
The total number of urgency incontinence episodes must have exceeded the total number of stress incontinence episodes for all subjects.

CYP3A4 = CYP3A4 (Homo sapiens, UniProt P08684); test: in vitro metabolism by CYPs; assay type: in vitro ADME
[2] = multiple rising dose Phase 1 pharmacokinetics in healthy subjects; assay type: in vivo, human; conditions: for concentration at 14 days: plasma, oral, read-out: Ctrough
[3] = male, human, plasma, oral, 50 mg, single 50 mg, healthy young males
[4] = male, human, plasma, oral, 50 mg, single 50 mg, healthy young males, Japanese
[5] = vibegron 3 mg once daily, OAB Wet subjects
[6] = vibegron 3 mg once daily, Part 1
[7] = vibegron 15 mg once daily, OAB Wet subjects
[8] = vibegron 15 mg once daily, Part 1
[9] = vibegron 50 mg once daily, OAB Wet subjects
[10] = vibegron 50 mg once daily, Part 1
[11] = vibegron 100 mg once daily, OAB Wet subjects

Sequence of CYP3A4 (P08684 whole entry): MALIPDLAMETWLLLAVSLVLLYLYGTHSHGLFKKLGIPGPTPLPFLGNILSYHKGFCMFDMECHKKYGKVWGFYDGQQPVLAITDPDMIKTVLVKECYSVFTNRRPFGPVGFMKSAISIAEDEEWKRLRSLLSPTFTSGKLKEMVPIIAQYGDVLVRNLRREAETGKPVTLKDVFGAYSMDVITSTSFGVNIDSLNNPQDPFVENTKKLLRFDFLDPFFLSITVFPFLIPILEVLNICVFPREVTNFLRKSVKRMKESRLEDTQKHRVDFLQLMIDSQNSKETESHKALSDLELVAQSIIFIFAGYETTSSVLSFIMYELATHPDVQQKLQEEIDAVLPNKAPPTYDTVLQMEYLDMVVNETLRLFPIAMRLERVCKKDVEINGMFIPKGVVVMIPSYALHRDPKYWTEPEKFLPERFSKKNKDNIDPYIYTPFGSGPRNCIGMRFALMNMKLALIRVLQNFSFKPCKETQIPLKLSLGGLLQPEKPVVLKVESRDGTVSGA

## O=C(Nc1ccc(C[C@@H]2CC[C@H]([C@H](O)c3ccccc3)N2)cc1)[C@@H]1CCc2nccc(=O)n21 [vibegron, (6S)—N-[4-[[(2S,5R)-5-[(R)-hydroxy(phenyl)methyl]pyrrolidin-2-yl]methyl]phenyl]-4-oxo-7,8-dihydro-6H-pyrrolo[1,2-a]pyrimidine-6-carboxamide]
Patients with OAB; 50 mg and 100 mg
  SBP and DBP mean changes at Week 1 and mean maximum changes over 8 weeks, difference between placebo and vibegron: < 1 mm Hg
Patients with OAB; 100 mg
  percent of subjects with a change from baseline in DBP >15 mmHg: 1.3%
Patients with OAB; in vivo
  HR mean maximum changes over 8 weeks, difference to placebo: < 2 bpm
Patients with OAB; vibegron 3 mg
  DBP change from baseline, mean (95% CI) Max, week 1 to 8: 5.03 (3.92, 6.15) mm Hg
  DBP change from baseline, mean (95% CI), week 1: −0.37 (−1.69, 0.95) mm Hg
  HR change from baseline, mean (95% CI) maximum, week 1 to 8: 5.57 (4.25, 6.90) bpm
  HR change from baseline, mean (95% CI), week 1: 0.36 (−0.90, 1.62) bpm
  SBP change from baseline, mean (95% CI) maximum, week 1 to 8: 7.14 (5.18, 9.10) mm Hg
  SBP change from baseline, mean (95% CI), week 1: −0.35 (−2.34, 1.65) mm Hg
Patients with OAB; vibegron 15 mg
  DBP change from baseline, mean (95% CI) Max, week 1 to 8: 6.37 (5.20, 7.53) mm Hg
  DBP change from baseline, mean (95% CI), week 1: 0.03 (−1.52, 1.59) mm Hg
  HR change from baseline, mean (95% CI) maximum, week 1 to 8: 6.56 (5.20, 7.92) bpm
  HR change from baseline, mean (95% CI), week 1: 0.35 (−1.15, 1.85) bpm
  SBP change from baseline, mean (95% CI) maximum, week 1 to 8: 8.93 (7.18, 10.67) mm Hg
  SBP change from baseline, mean (95% CI), week 1: −0.34 (−2.46, 1.78) mm Hg
Patients with OAB; vibegron 50 mg
  DBP change from baseline, mean (95% CI) Max, week 1 to 8: 4.19 (3.10, 5.29) mm Hg
  DBP change from baseline, mean (95% CI), week 1: −0.70 (−2.07, 0.67) mm Hg
  HR change from baseline, mean (95% CI) maximum, week 1 to 8: 5.49 (4.28, 6.69) bpm
  HR change from baseline, mean (95% CI), week 1: 0.29 (−0.88, 1.46) bpm
  SBP change from baseline, mean (95% CI) maximum, week 1 to 8: 7.01 (5.31, 8.70) mm Hg
  SBP change from baseline, mean (95% CI), week 1: −0.79 (−2.65, 1.08) mm Hg
Patients with OAB; vibegron 100 mg
  DBP change from baseline, mean (95% CI) Max, week 1 to 8: 4.80 (3.88, 5.72) mm Hg
  DBP change from baseline, mean (95% CI), week 1: −0.69 (−1.72, 0.34) mm Hg
  HR change from baseline, mean (95% CI) maximum, week 1 to 8: 6.12 (5.10, 7.15) bpm
  HR change from baseline, mean (95% CI), week 1: 0.35 (−0.69, 1.38) bpm
  SBP change from baseline, mean (95% CI) maximum, week 1 to 8: 6.51 (5.09, 7.93) mm Hg
  SBP change from baseline, mean (95% CI), week 1: −0.77 (−2.22, 0.68) mm Hg
[1]; [3]
  Cmax: 31.7 ± 35 ng/mL
  AUC(0-t): 219 ± 123 ng·h/mL
[1]; [4]
  Cmax: 62.2 ± 20.4 ng/mL
  AUC(0-t): 385 ± 136 ng·h/mL
[1]; male, human, plasma, oral, 50 mg, single 50 mg, healthy young males, Japanese, read-out: AUC0-inf
  AUC(0-inf): 885 ± 241 ng·h/mL
[1]; male, human, plasma, oral, 50 mg, single 50 mg, healthy young males, read-out: AUC0-inf
  AUC(0-inf): 551 ± 262 ng·h/mL
[1]; single 20 mg, healthy young males
  t1/2, harmonic mean ± pseudo SD: 64.2 ± 12.6 h
[1]; single 50 mg, Elderly Male and Female
  t1/2, harmonic mean ± pseudo SD: 92 h and 92.1 ± 15.9 h
[1]; single 50 mg, healthy young males, Japanese
  t1/2, harmonic mean ± pseudo SD: 64.4 ± 8.7 h
[1]; single 100 mg, healthy young males
  t1/2, harmonic mean ± pseudo SD: 72.8 ± 10.8 h
[1]; single 150 mg, healthy young males
  AUC(0-inf): 2270 ± 911 ng·h/mL
[1]; single 200 mg, healthy young males
  t1/2, harmonic mean ± pseudo SD: 75.3 ± 9.1 h
[1]; single 200 mg, healthy young males, Japanese
  t1/2, harmonic mean ± pseudo SD: 58.4 ± 9.0 h
[1]; single 300 mg, healthy young males, Japanese
  t1/2, harmonic mean ± pseudo SD: 59.7 ± 9.2 h
[1]; single 450 mg, healthy young males
  t1/2, harmonic mean ± pseudo SD: 60.0 ± 9.4 h
Men and women with OAB; between 50 and 100 mg once daily
  dose-response relationship: relatively shallow dose-response relationship
Men and women with OAB; [5]
  Total Incontinence Episodes, difference from placebo Week 8, LS means: −0.18
  Urgency Incontinence Episodes, difference from placebo Week 8, LS means: −0.28
Men and women with OAB; [6]
  Micturitions, difference from placebo Week 8, LS means: −0.46
  Urgency Episodes, difference from placebo Week 8, LS means: −0.18
Men and women with OAB; [7]
  Total Incontinence Episodes, difference from placebo Week 8, LS means: −0.48
  Urgency Incontinence Episodes, daily number, Week 8 mean: 1.12
  Urgency Incontinence Episodes, difference from placebo Week 8, LS means: −0.57
Men and women with OAB; [8]
  Micturitions, difference from placebo Week 8, LS means: −0.45
  Urgency Episodes, difference from placebo Week 8, LS means: −0.67
Men and women with OAB; [9]
  Total Incontinence Episodes, difference from placebo Week 8, LS means: −0.60
  Urgency Incontinence Episodes, difference from placebo Week 8, LS means: −0.72
Men and women with OAB; [10]
  Micturitions, difference from placebo Week 8, LS means: −0.64
  Urgency Episodes, difference from placebo Week 8, LS means: −0.76
Men and women with OAB; vibegron 100 mg and 50 mg treatment groups, Part 1
  average number of daily micturitions compared to placebo at Week 8: statistically significant decreases
Men and women with OAB; [11]
  Total Incontinence Episodes, daily number, Week 8 mean: 1.12
  Total Incontinence Episodes, difference from placebo Week 8, LS means: −0.58
  Urgency Incontinence Episodes, difference from placebo Week 8, LS means: −0.71
Men and women with OAB; vibegron 100 mg once daily, Part 1
  Micturitions, difference from placebo Week 8, LS means: −0.91
Men and women with OAB; week 8
  Micturitions, difference in LS means 100 mg − 50 mg: −0.27
  Total incontinence, difference in LS means 100 mg − 50 mg: 0.02
  Urgency Episodes, difference in LS means 100 mg − 50 mg: −0.48
  Urgency incontinence, difference in LS means 100 mg − 50 mg: 0.01
CYP3A4
  CYP responsible for in vitro metabolism: CYP3A4 is the predominant CYP
[2]; 100 mg, elderly subjects
  fraction of dose excreted at steady state (fe0-24hr, ss): ~17%
[2]; 100 and 150 mg, young males
  fraction of dose excreted at steady state (fe0-24hr, ss): ~14%
[2]; Day 14
  steady state exposure (AUC0-24) higher in elderly Japanese than elderly non-Japanese: 35%
[2]; QD doses of 100 mg
  steady state Cmax in elderly compared to young males: ~1.3 fold
[2]; both sexes, human, 100 mg, multiple dose 100 mg, after 14 days, Elderly Male and Female
  concentration at 14 days: 54.2 ng/mL
[2]; human, in vivo
  Cmax higher in elderly and females than healthy young males: 50-70%
  Cmax increased in elderly Japanese compared to elderly non-Japanese: 82%
  steady state AUC in middle-aged females compared to middle-aged males: ~1.5 fold
  steady state exposures higher in Japanese than non-Japanese young males: ~30%
[2]; male, human, 50 mg, multiple dose 50 mg, after 14 days, healthy young males
  concentration at 14 days: 15.2 ng/mL
[2]; male, human, 100 mg, multiple dose 100 mg, after 14 days, healthy young males, Japanese
  concentration at 14 days: 41 ± 11 ng/mL
[2]; male, human, 100 mg, multiple dose 100 mg, after 14 days, healthy young males
  concentration at 14 days: 31.9 ng/mL
[2]; multiple dose 150 mg, after 14 days, healthy young males
  t1/2, harmonic mean ± pseudo SD: 79.2 ± 9.2 h
[2]; multiple dose 200 mg, after 14 days, healthy young males
  AUC0-24: 3200 ± 1120 ng·h/mL
[2]; multiple dose 400 mg, after 14 days, healthy young males
  t1/2, harmonic mean ± pseudo SD: 58.9 ± 5.9 h
[2]; once daily dosing
  time to steady state concentrations: ≤ 7 days
[2]; regardless of age
  exposures (AUC) higher in females compared with males: 50%
